# Data reported in patent publication US20100249068A1, “S[…] NUCLEOTIDE ANALOGS” (Alios BioPharma, Inc., priority 2009, published 2010).
# System: stably HCV RNA-replicating cell line, AVA5 (genotype 1b, subgenomic replicon)
# Assay: HCV replicon assay (intracellular HCV RNA levels by blot hybridization, normalized to β-actin RNA)
# Assay type: cell-based
# Settings: Hepatitis C virus; AVA5 cells, HCV genotype 1b subgenomic replicon; compounds added daily for three days; HCV RNA assessed 72 hours after treatment; read-out: Activity (EC50)
# Method: Antiviral activity of test compounds was assessed (Okuse, et al., Antivir. Res. 2005 65:23) in the stably HCV RNA-replicating cell line, AVA5 (genotype 1b, subgenomic replicon, Blight, et al., Sci. 2000 290:1972). Compounds were added to dividing cultures daily for three days. […] Intracellular HCV RNA levels and cytotoxicity were assessed 72 hours after treatment.
# Quadruplicate cultures for HCV RNA levels and cytoxicity (on 96-well plates) were used. A total of 12 untreated control cultures, and triplicate cultures treated with α-interferon (concentrations of: 10 IU/mL, 3.3 IU/mL, 1.1 IU/mL and 0.37 IU/mL) and 2′C-Me-C (concentrations of: 30 μM, 10 μM, 3.3 μM and 1.1 μM) served as assay controls.
# Intracellular HCV RNA levels were measured using a conventional blot hybridization method, in which HCV RNA levels are normalized to the levels of β-actin RNA in each individual culture (Okuse, et al., Antivir. Res. 2005 65:23). Cytotoxicity was measured using an established neutral red dye uptake assay (Korba and Gerin, Antivir. Res. 1992 19:55; Okuse, et al., Antivir. Res. 2005 65:23). HCV RNA levels in the treated cultures are expressed as a percentage of the mean levels of RNA detected in untreated cultures. The absorbance of the internalized dye at […] (A510) was used for quantitative analysis.
# Compounds were dissolved in 100% tissue culture grade DMSO (Sigma, Inc.) at 10 mM. Aliquots of test compounds sufficient for one daily treatment were made in individual tubes and all material was stored at −20° C. For the test, the compounds were suspended into culture medium at room temperature, and immediately added to the cell cultures. Compounds were analyzed separately in two groups with separate assay controls. The concentrations of the test compounds were run at concentrations of 10 μM, 3.3 μM, 1.1 μM and 0.37 μM. CC50, EC50 and EC90 were determined using the concentration response curve.
row,Structure (SMILES),EC50 [µM]
1,CCC(=O)O[C@@H](C)[C@H]1O[C@@H](n2ccc(N)nc2=O)C(F)(F)[C@@H]1O,< 5
2,C[C@H](O)[C@H]1O[C@@H](n2ccc(N)nc2=O)[C@@H](O)[C@@H]1O,< 200
3,C[C@H](O)[C@H]1O[C@@H](n2ccc(N)nc2=O)[C@H](F)[C@@H]1O,< 30
4,CC(=O)Nc1ccn([C@@H]2O[C@H]([C@H](C)OC(C)=O)[C@@H](OC(C)=O)C2(F)F)c(=O)n1,< 5
5,C[C@@H](O)[C@H]1O[C@@H](n2ccc3c(N)ncnc32)[C@H](O)[C@@H]1O,< 30
6,C[C@@H](O)[C@H]1O[C@@H](n2ccc(N)nc2=O)[C@@H](O)[C@@H]1O,< 5
7,C[C@@H](O)[C@H]1O[C@@H](n2cnc3c(N)ncnc32)[C@](C)(O)[C@@H]1O,< 30
8,C[C@@H](O)[C@H]1O[C@@H](n2ccc(N)nc2=O)C(F)(F)[C@@H]1O,< 5
9,CC(OC(=O)c1ccccc1)[C@H]1O[C@@H](N2C=CC(N)NC2=O)[C@](C)(OC(=O)c2ccccc2)[C@@H]1OC(=O)c1ccccc1 (stereo partly drawn),< 30
10,CC(=O)O[C@@H](C)[C@H]1O[C@@H](n2ccc(N)nc2=O)C(F)(F)[C@@H]1O,< 5
11,CC(O)[C@H]1O[C@@H](n2ccc(N)nc2=O)[C@@H](F)[C@@H]1O (stereo partly drawn),< 30
12,CCC(=O)O[C@@H](C)[C@H]1O[C@@H](n2ccc(N)nc2=O)C(F)(F)[C@@H]1OC(=O)CC,< 5
13,C[C@H](O)[C@H]1O[C@@H](n2ccc(N)nc2=O)C(F)(F)[C@@H]1O,< 5
14,COC(=O)[C@@H](C)N[P@](=O)(Oc1ccccc1)O[C@H](C)[C@H]1O[C@@H](n2cnc3c(N)ncnc32)[C@H](O)[C@@H]1O,< 5
15,CC(O)[C@H]1O[C@@H](n2cnc3c(=O)[nH]c(N)nc32)[C@H](O)[C@@H]1O (stereo partly drawn),< 200
16,CC(=O)O[C@@H](C)[C@H]1O[C@@H](n2ccc(N)nc2=O)C(F)(F)[C@@H]1OC(C)=O,< 5

# Same assay, conditions: Hepatitis C virus; AVA5 cells, HCV genotype 1b subgenomic replicon; compounds added daily for three days; HCV RNA assessed 72 hours after treatment; read-out: EC50
row,Structure (SMILES),EC50 [µM]
1,"CO[C@@H]1[C@H](O)[C@@H](CO)O[C@H]1n1ccc(N)nc1=O [Compound 8a, 2′-O-methylcytidine, reference compound]",1 to 10
2,"C[C@H](O)C1O[C@@H](n2cnc3c(N)ncnc32)[C@](C)(O)[C@@H]1O (stereo in doubt) [Compound 9, 2′,5′-C-dimethyladenosine]",1 to 10
